Reference: ChEMBL document CHEMBL2062480, “Semi-synthesis and anti-tumor evaluation of novel 25-hydroxyprotopanaxadiol derivatives” (Eur J Med Chem, 2012)

Columns and labels:
[1] = Antiproliferative activity against human IOSE-144 cells after 48 hrs by MTT assay; assay type: cell-based; settings: IOSE-144, 48 h
LoVo = experiment: Antiproliferative activity against human LoVo cells after 48 hrs by MTT assay; assay type: functional, cell-based
A549 = experiment: Antiproliferative activity against human A549 cells after 48 hrs by MTT assay; assay type: functional, cell-based; settings: A549, 48 h
MCF7 [2] = experiment: Antiproliferative activity against human MCF7 cells assessed as cell viability at 30 uM after 48 hrs by MTT assay; assay type: functional; settings: MCF7, 48 h, read-out: Activity
MCF7 [3] = experiment: Antiproliferative activity against human MCF7 cells after 48 hrs by MTT assay; assay type: functional, cell-based; settings: for IC50: MCF7, 48 h

SMILES | IC50 [1] | IC50 (LoVo) | IC50 (A549) | viability at 30 µM (MCF7 [2]) | IC50 (MCF7 [3]) | Activity (MCF7 [3])
O=c1[nH]cc(F)c(=O)[nH]1 [FLUOROURACIL] | 25.6 µM | 3.3 µM | 12.8 µM | 42.5% | 16.2 µM | 
CCCCCCCCCCCCCCCC(=O)O[C@H]1CC[C@]2(C)[C@H]3C[C@@H](O)[C@@H]4[C@@H]([C@](C)(O)CCCC(C)(C)O)CC[C@@]4(C)[C@]3(C)CC[C@H]2C1(C)C | > 100 µM | > 100 µM | > 100 µM |  | > 100 µM | 
CCCCCCCC/C=C\CCCCCCCC(=O)O[C@H]1CC[C@]2(C)[C@H]3C[C@@H](O)[C@@H]4[C@@H]([C@](C)(O)CCCC(C)(C)O)CC[C@@]4(C)[C@]3(C)CC[C@H]2C1(C)C | > 100 µM | > 100 µM | > 100 µM |  | > 100 µM | 
CCCC(=O)O[C@H]1CC[C@]2(C)[C@H]3C[C@@H](O)[C@@H]4[C@@H]([C@](C)(O)CCCC(C)(C)O)CC[C@@]4(C)[C@]3(C)CC[C@H]2C1(C)C | > 100 µM | > 50 µM | 35.5 µM |  | 42.8 µM | 
CC(C)(O)CCC[C@@](C)(O)[C@H]1CC[C@]2(C)[C@@H]1[C@H](O)C[C@@H]1[C@@]3(C)CC[C@H](O)C(C)(C)[C@@H]3CC[C@]12C | > 100 µM | 45.2 µM | 34.2 µM | 66.3% | 48.9 µM | 
CCCCCCCCCC(=O)O[C@@H]1C[C@@H]2[C@@]3(C)CC[C@H](O)C(C)(C)[C@@H]3CC[C@@]2(C)[C@]2(C)CC[C@H]([C@](C)(O)CCCC(C)(C)O)[C@@H]12 | > 100 µM | > 50 µM | 29.6 µM |  | 26.2 µM | 
CCCCCCCCCC(=O)O[C@H]1CC[C@]2(C)[C@H]3C[C@@H](O)[C@@H]4[C@@H]([C@](C)(O)CCCC(C)(C)O)CC[C@@]4(C)[C@]3(C)CC[C@H]2C1(C)C | > 100 µM | > 50 µM | > 100 µM |  | > 100 µM | 
CC(C)(O)CCC[C@@](C)(O)[C@H]1CC[C@]2(C)[C@@H]1[C@H](OC=O)C[C@@H]1[C@@]3(C)CC[C@H](OC=O)C(C)(C)[C@@H]3CC[C@]12C | > 100 µM | 49.5 µM | 12.5 µM | 10.6% | 1.1 µM | 
CCC(=O)O[C@H]1CC[C@]2(C)[C@H]3C[C@@H](O)[C@@H]4[C@@H]([C@](C)(O)CCCC(C)(C)O)CC[C@@]4(C)[C@]3(C)CC[C@H]2C1(C)C | > 100 µM | > 50 µM | 43.6 µM |  | 12.5 µM | Dose-dependent effect
CCC(=O)O[C@@H]1C[C@@H]2[C@@]3(C)CC[C@H](O)C(C)(C)[C@@H]3CC[C@@]2(C)[C@]2(C)CC[C@H]([C@](C)(O)CCCC(C)(C)O)[C@@H]12 | > 100 µM | 40.3 µM | 17.7 µM | 17.1% | 10.4 µM | 
CCCCCCCCCCCC(=O)O[C@@H]1C[C@@H]2[C@@]3(C)CC[C@H](O)C(C)(C)[C@@H]3CC[C@@]2(C)[C@]2(C)CC[C@H]([C@](C)(O)CCCC(C)(C)O)[C@@H]12 | > 100 µM | > 50 µM | > 100 µM |  | > 100 µM | 
CCCCCCCCCCCC(=O)O[C@H]1CC[C@]2(C)[C@H]3C[C@@H](O)[C@@H]4[C@@H]([C@](C)(O)CCCC(C)(C)O)CC[C@@]4(C)[C@]3(C)CC[C@H]2C1(C)C | > 100 µM | > 100 µM | > 100 µM |  | > 100 µM | 
CCCCCCCCCCCCCC(=O)O[C@H]1CC[C@]2(C)[C@H]3C[C@@H](O)[C@@H]4[C@@H]([C@](C)(O)CCCC(C)(C)O)CC[C@@]4(C)[C@]3(C)CC[C@H]2C1(C)C | > 100 µM | > 100 µM | > 100 µM |  | > 100 µM | 
CCCCCCCCCCCCCCCCCC(=O)O[C@@H]1C[C@@H]2[C@@]3(C)CC[C@H](O)C(C)(C)[C@@H]3CC[C@@]2(C)[C@]2(C)CC[C@H]([C@](C)(O)CCCC(C)(C)O)[C@@H]12 | > 100 µM | > 100 µM | > 100 µM |  | > 100 µM | 
CC(=O)O[C@H]1CC[C@]2(C)[C@H]3C[C@@H](OC(C)=O)[C@@H]4[C@@H]([C@](C)(O)CCCC(C)(C)O)CC[C@@]4(C)[C@]3(C)CC[C@H]2C1(C)C | > 100 µM | 43.4 µM | 14.8 µM |  | 25.3 µM | 
CCCCCCCCCCCCCCCC(=O)O[C@@H]1C[C@@H]2[C@@]3(C)CC[C@H](O)C(C)(C)[C@@H]3CC[C@@]2(C)[C@]2(C)CC[C@H]([C@](C)(O)CCCC(C)(C)O)[C@@H]12 | > 100 µM | > 100 µM | > 50 µM |  | > 50 µM | 

SMILES | IC50 [1] | IC50 (LoVo) | IC50 (A549) | viability at 30 µM (MCF7 [2]) | IC50 (MCF7 [3]) | Activity (MCF7 [3])
CCCCCCC(=O)O[C@H]1CC[C@]2(C)[C@H]3C[C@@H](O)[C@@H]4[C@@H]([C@](C)(O)CCCC(C)(C)O)CC[C@@]4(C)[C@]3(C)CC[C@H]2C1(C)C | > 100 µM | > 50 µM | 16.8 µM |  | 33.7 µM | 
CCCCCCC(=O)O[C@@H]1C[C@@H]2[C@@]3(C)CC[C@H](O)C(C)(C)[C@@H]3CC[C@@]2(C)[C@]2(C)CC[C@H]([C@](C)(O)CCCC(C)(C)O)[C@@H]12 | > 100 µM | 48.1 µM | 16.5 µM |  | 16.3 µM | 
CC(=O)O[C@@H]1C[C@@H]2[C@@]3(C)CC[C@H](O)C(C)(C)[C@@H]3CC[C@@]2(C)[C@]2(C)CC[C@H]([C@](C)(O)CCCC(C)(C)O)[C@@H]12 | > 100 µM | 37.5 µM | 10.4 µM | 13.2% | 15.1 µM | 
CC(=O)O[C@H]1CC[C@]2(C)[C@H]3C[C@@H](O)[C@@H]4[C@@H]([C@](C)(O)CCCC(C)(C)O)CC[C@@]4(C)[C@]3(C)CC[C@H]2C1(C)C | > 100 µM | > 50 µM | 15.7 µM |  | 15.2 µM | Dose-dependent effect
CCCCC(=O)O[C@H]1CC[C@]2(C)[C@H]3C[C@@H](OC(=O)CCCC)[C@@H]4[C@@H]([C@](C)(O)CCCC(C)(C)O)CC[C@@]4(C)[C@]3(C)CC[C@H]2C1(C)C | > 100 µM | > 50 µM | 49.9 µM |  | > 50 µM | 
CCCC(=O)O[C@@H]1C[C@@H]2[C@@]3(C)CC[C@H](O)C(C)(C)[C@@H]3CC[C@@]2(C)[C@]2(C)CC[C@H]([C@](C)(O)CCCC(C)(C)O)[C@@H]12 | > 100 µM | 38.3 µM | 25.5 µM | 28.5% | 32.8 µM | 
CCCCCCCCC(=O)O[C@H]1CC[C@]2(C)[C@H]3C[C@@H](O)[C@@H]4[C@@H]([C@](C)(O)CCCC(C)(C)O)CC[C@@]4(C)[C@]3(C)CC[C@H]2C1(C)C | > 100 µM | > 50 µM | > 50 µM |  | > 50 µM | 
CC(C)(O)CCC[C@@](C)(O)[C@H]1CC[C@]2(C)[C@@H]1[C@H](O)C[C@@H]1[C@@]3(C)CC[C@H](OC=O)C(C)(C)[C@@H]3CC[C@]12C | > 100 µM | > 50 µM | 39.2 µM |  | 11.5 µM | Dose-dependent effect
CCCCC(=O)O[C@H]1CC[C@]2(C)[C@H]3C[C@@H](O)[C@@H]4[C@@H]([C@](C)(O)CCCC(C)(C)O)CC[C@@]4(C)[C@]3(C)CC[C@H]2C1(C)C | > 100 µM | > 50 µM | > 50 µM |  | > 50 µM | 
CCCCCCCC/C=C\CCCCCCCC(=O)O[C@@H]1C[C@@H]2[C@@]3(C)CC[C@H](O)C(C)(C)[C@@H]3CC[C@@]2(C)[C@]2(C)CC[C@H]([C@](C)(O)CCCC(C)(C)O)[C@@H]12 | > 100 µM | > 100 µM | > 100 µM |  | > 100 µM | 
CCCCCCCCCCCCCC(=O)O[C@@H]1C[C@@H]2[C@@]3(C)CC[C@H](O)C(C)(C)[C@@H]3CC[C@@]2(C)[C@]2(C)CC[C@H]([C@](C)(O)CCCC(C)(C)O)[C@@H]12 | > 100 µM | > 100 µM | > 100 µM |  | > 100 µM | 
CC(C)(O)CCC[C@@](C)(O)[C@H]1CC[C@]2(C)[C@@H]1[C@H](OC=O)C[C@@H]1[C@@]3(C)CC[C@H](O)C(C)(C)[C@@H]3CC[C@]12C | > 100 µM | 49.6 µM | 15.9 µM | 15.1% | 11.6 µM | 
CCCCCCCC(=O)O[C@H]1CC[C@]2(C)[C@H]3C[C@@H](O)[C@@H]4[C@@H]([C@](C)(O)CCCC(C)(C)O)CC[C@@]4(C)[C@]3(C)CC[C@H]2C1(C)C | > 100 µM | > 50 µM | 46.7 µM |  | > 100 µM | 
CCCCCCCCCCCCCCCCCC(=O)O[C@H]1CC[C@]2(C)[C@H]3C[C@@H](O)[C@@H]4[C@@H]([C@](C)(O)CCCC(C)(C)O)CC[C@@]4(C)[C@]3(C)CC[C@H]2C1(C)C | > 100 µM | > 100 µM | > 100 µM |  | > 100 µM | 
CCC(=O)O[C@H]1CC[C@]2(C)[C@H]3C[C@@H](OC(=O)CC)[C@@H]4[C@@H]([C@](C)(O)CCCC(C)(C)O)CC[C@@]4(C)[C@]3(C)CC[C@H]2C1(C)C | > 100 µM | 45.3 µM | 14.9 µM |  | 20.6 µM | 
CCCCCC(=O)O[C@H]1CC[C@]2(C)[C@H]3C[C@@H](O)[C@@H]4[C@@H]([C@](C)(O)CCCC(C)(C)O)CC[C@@]4(C)[C@]3(C)CC[C@H]2C1(C)C | > 100 µM | > 50 µM | 26.2 µM |  | > 50 µM | 
